Data on 34 compounds can be found in US9388174B2, “Azole benzene derivative” (TEIJIN PHARMA LIMITED, priority 2013, dated 2016).

The test deals with T1, oxidase-type xanthine oxidoreductase (from buttermilk) (Bos taurus, UniProt P80457).
T1 construct: purchased Calbiochem Novabiochem Corp; host or cells: buttermilk (natural source)
Briefly: xanthine oxidase inhibitory activity (change of absorbance at 290 nm). Format: biochemical. The conditions noted are these: xanthine substrate, read-out: Inhibitor Activity. The protocol: Test compound was dissolved in DMSO (manufactured by Sigma Co.) to prepare a 20 mM solution. The solution was adjusted to an optimal concentration and used for the testing.
This evaluation was carried out by measuring oxidase-type xanthine oxidoreductase activity. Concretely, a xanthine (manufactured by Sigma Co.) solution was prepared at 10 mM using a 20 mM sodium hydroxide solution and then mixed with 100 mM phosphate buffer to adjusted to 30 μM. 75 μL of the solution was added to each well of the 96-well plate. The test compound diluted with DMSO at 100 times of a final concentration was added to each well at 1.5 μL per well. […] Immediately after mixing, the change of absorbance at 290 nm was measured for 5 minutes. The enzyme activity of DMSO solution without test compound was used as 100% control, and the inhibitory rate of the test compounds was calculated. Fifty percent inhibitory concentration of the test compounds on the oxidase-type xanthine oxidoreductase activity was calculated by fitting to the dose-response curve.

Bounds are passed on as bounds.

T1 sequence (P80457 whole entry): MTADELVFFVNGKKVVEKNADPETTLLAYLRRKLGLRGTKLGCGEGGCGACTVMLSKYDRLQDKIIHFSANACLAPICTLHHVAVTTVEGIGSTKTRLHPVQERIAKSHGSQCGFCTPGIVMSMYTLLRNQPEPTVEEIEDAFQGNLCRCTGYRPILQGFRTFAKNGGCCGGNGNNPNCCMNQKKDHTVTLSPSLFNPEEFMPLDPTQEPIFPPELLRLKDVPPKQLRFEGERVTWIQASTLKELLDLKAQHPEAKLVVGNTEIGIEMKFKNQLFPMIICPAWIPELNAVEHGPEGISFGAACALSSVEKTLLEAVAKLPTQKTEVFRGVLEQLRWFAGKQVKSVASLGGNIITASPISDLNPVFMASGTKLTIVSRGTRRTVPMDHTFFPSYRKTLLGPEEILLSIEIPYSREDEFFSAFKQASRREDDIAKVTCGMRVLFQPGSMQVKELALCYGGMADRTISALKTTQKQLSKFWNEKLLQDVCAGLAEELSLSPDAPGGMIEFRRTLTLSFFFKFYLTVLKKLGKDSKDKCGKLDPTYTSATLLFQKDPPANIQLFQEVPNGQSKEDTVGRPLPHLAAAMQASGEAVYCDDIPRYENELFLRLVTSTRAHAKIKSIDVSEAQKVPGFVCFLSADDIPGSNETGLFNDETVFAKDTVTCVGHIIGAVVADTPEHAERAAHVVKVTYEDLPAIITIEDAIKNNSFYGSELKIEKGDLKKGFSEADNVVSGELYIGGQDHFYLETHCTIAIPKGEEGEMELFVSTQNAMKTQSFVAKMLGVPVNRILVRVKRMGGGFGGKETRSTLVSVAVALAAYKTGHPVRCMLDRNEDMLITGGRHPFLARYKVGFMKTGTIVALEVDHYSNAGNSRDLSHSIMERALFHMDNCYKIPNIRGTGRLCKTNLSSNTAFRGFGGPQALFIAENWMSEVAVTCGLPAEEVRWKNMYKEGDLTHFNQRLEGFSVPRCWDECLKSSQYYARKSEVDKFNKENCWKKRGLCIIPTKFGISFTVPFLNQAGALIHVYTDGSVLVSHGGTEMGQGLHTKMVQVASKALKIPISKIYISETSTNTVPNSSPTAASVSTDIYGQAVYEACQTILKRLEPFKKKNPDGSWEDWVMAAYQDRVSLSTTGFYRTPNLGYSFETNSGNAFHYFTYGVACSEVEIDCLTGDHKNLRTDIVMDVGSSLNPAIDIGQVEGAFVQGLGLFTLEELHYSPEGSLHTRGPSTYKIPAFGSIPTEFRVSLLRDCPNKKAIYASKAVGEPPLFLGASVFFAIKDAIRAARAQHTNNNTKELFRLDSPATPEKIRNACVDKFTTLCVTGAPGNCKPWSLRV

Take `Cc1nc(-c2ccc(OCC(C)CO)c(-n3cnnn3)c2)sc1C(=O)O` (stereo not shown) [Compound No. 29, 2-[4-(3-hydroxy-2-methylpropoxy)-3-(1H-1,2,3,4-tetrazol-1-yl)phenyl]-4-methyl-1,3-thiazole-5-carboxylic acid]: the IC50 fell in the range of 1 to 5 nM.

`Cc1ccc(Sc2ccc(-c3nc(C)c(C(=O)O)s3)cc2-n2cnnn2)cc1` [compound 51, 4-methyl-2-{4-[(4-methylphenyl)sulfanyl]-3-(1H-1,2,3,4-tetrazol-1-yl)phenyl}-1,3-thiazole 5-carboxylic acid]: the IC50 was 1 to 5 nM.

On to `Cc1ccc(F)c(Oc2ccc(-c3nc(C)c(C(=O)O)s3)cc2-n2cnnn2)c1` [compound 48, 2-[4-(2-fluoro-5-methylphenoxy)-3-(1H-1,2,3,4-tetrazol-1-yl)phenyl]-4-methyl-1,3-thiazole-5-carboxylic acid], for which the IC50 lay within 1 to 5 nM.

As for `CCN(CC)c1ccc(-c2nc(C)c(C(=O)O)s2)cc1-n1cnnn1` [Compound No. 52, 2-[4-(N,N-diethylamino)-3-(1H-1,2,3,4-tetrazol-1-yl)phenyl]-4-methyl-1,3-thiazole-5-carboxylic acid], the IC50 was 1 to 5 nM.

With `Cc1nc(-c2ccc(OCC(C)C)c(-n3cncn3)c2)sc1C(=O)O` [compound 13, 4-methyl-2-[4-(2-methylpropoxy)-3-(1H-1,2,4-triazol-1-yl)phenyl]-1,3-thiazole-5-carboxylic acid], the IC50 was in the range of 1 to 5 nM.

For the compound `CC(C)COc1ccc(-c2ncc(C(=O)O)s2)cc1-n1cnnn1` [compound 32, 2-[4-(2-methylpropoxy)-3-(1H-1,2,3,4-tetrazol-1-yl)phenyl]-1,3 thiazole-5-carboxylic acid], the IC50 was 1 to 5 nM.

On to `Cc1nc(-c2ccc(OCC3CCC3)c(-n3cnnn3)c2)sc1C(=O)O` [compound 27, 2-[4-(cyclobutylmethoxy)-3-(1H-1,2,3,4-tetrazol-1-yl)phenyl]-4-methyl-1,3-thiazole-5-carboxylic acid], for which the IC50 lay within 1 to 5 nM.

Consider `Cc1nc(-c2ccc(Oc3ccccc3)c(-n3ccnc3)c2)sc1C(=O)O` [Compound No. 7, 2-[3-(1H-imidazol-1-yl)-4-phenoxyphenyl]-4-methyl-1,3-thiazole-5-carboxylic acid], for which the IC50 is > 10 nM.

As to `Cc1nc(-c2ccc(OCC(C)(C)O)c(-n3cnnn3)c2)sc1C(=O)O` [Compound No. 30, 2-[4-(2-hydroxy-2-methylpropoxy)-3-(1H-1,2,3,4-tetrazol-1-yl)phenyl]-4-methyl-1,3-thiazole-5-carboxylic acid], the IC50 is 1 to 5 nM.

Take `Cc1nc(-c2ccc(Oc3ccccc3F)c(-n3ccnc3)c2)sc1C(=O)O` [Compound No. 8, 2-[4-(2-fluorophenoxy)-3-(1H-imidazol-1-yl)phenyl]-4-methyl-1,3-thiazole-5-carboxylic acid]: the IC50 is > 10 nM.

On to `Cc1nc(-c2ccc(Oc3ccccc3)c(-n3ccnn3)c2)sc1C(=O)O` [compound 22, 4-methyl-2-[4-phenoxy-3-(1H-1,2,3-triazol-1-yl)phenyl]-1,3-thiazole-5-carboxylic acid], for which the IC50 is > 10 nM.

Take `Cc1nc(-c2ccc(Oc3ccccc3Cl)c(-n3cnnn3)c2)sc1C(=O)O` [compound 39, 2-[4-(2-chlorophenoxy)-3-(1H-1,2,3,4-tetrazol-1-yl)phenyl]-4-methyl-1,3-thiazole-5-carboxylic acid]: the IC50 is 1 to 5 nM.

Turning to `Cc1nc(-c2ccc(Oc3c(F)cccc3F)c(-n3cnnn3)c2)sc1C(=O)O` [compound 36, 2-[4-(2,6-difluorophenoxy)-3-(1H-1,2,3,4-tetrazol-1-yl)phenyl]-4-methyl-1,3-thiazole-5-carboxylic acid], the IC50 fell in the range of 1 to 5 nM.

On to `Cc1nc(-c2ccc(OC3CCCC3)c(-n3cnnn3)c2)sc1C(=O)O` [compound 28, 2-[4-(cyclopentyloxy)-3-(1H-1,2,3,4-tetrazol-1-yl)phenyl]-4-methyl-1,3-thiazole-5-carboxylic acid], for which the IC50 is 1 to 5 nM.

Turning to `Cc1ncn(-c2cc(-c3nc(C)c(C(=O)O)s3)ccc2OCC(C)C)n1` [compound 12, 4-methyl-2-[3-(3-methyl-1H-1,2,4-triazol-1-yl)-4-(2-methylpropoxy)phenyl]-1,3-thiazole-5-carboxylic acid], the IC50 lay in the range of 1 to 5 nM.

As to `Cc1nc(-c2ccc(OC(C)C)c(-n3cnnn3)c2)sc1C(=O)O` [Compound No. 24, 4-methyl-2-[4-(propan-2-yloxy)-3-(1H-1,2,3,4-tetrazole-1-yl)phenyl]-1,3-thiazole-5-carboxylic acid], the IC50 was in the range of 1 to 5 nM.

Turning to `Cc1nc(-c2ccc(OCC3CCC3)c(-n3ccnc3)c2)sc1C(=O)O` [Compound No. 3, 2-[4-(cyclobutylmethoxy)-3-(1H-imidazol-1-yl)phenyl]-4-methyl-1,3-thiazole-5-carboxylic acid], the IC50 fell in the range of 5 to 10 nM.

On to `Cc1nc(-c2ccc(OCC(C)C)c(-n3ccnc3C)c2)sc1C(=O)O` [compound 9, 4-methyl-2-[3-(2-methyl-1H-imidazol-1-yl)-4-(2-methylpropoxy)phenyl]-1,3-thiazole-5-carboxylic acid], for which the IC50 lay within 1 to 5 nM.

Regarding `Cc1nc(-c2ccc(N3CCCC3)c(-n3cnnn3)c2)sc1C(=O)O` [Compound No. 53, 4-methyl-2-[4-(pyrrolidin-1-yl)-3-(1H-1,2,3,4-tetrazol-1-yl)phenyl]-1,3-thiazole 5-carboxylic acid], the IC50 fell in the range of 1 to 5 nM.

`CC(C)COc1ccc(-c2ncc(C(=O)O)s2)cc1-n1ccnn1` [compound 21, 2-[4-(2-methylpropoxy)-3-(1H-1,2,3-triazol-1-yl)phenyl]-1,3-thiazole-5-carboxylic acid]: the IC50 fell in the range of 1 to 5 nM.

Regarding `Cc1nc(-c2ccc(OC(C)C)c(-n3ccnn3)c2)sc1C(=O)O` [Compound No. 16, 4-methyl-2-[4-(propan-2-yloxy)-3-(1H-1,2,3-triazol-1-yl)phenyl]-1,3-thiazole-5-carboxylic acid], the IC50 fell in the range of 1 to 5 nM.

With `Cc1nc(-c2ccc(OCC3CCC3)c(-n3ccnn3)c2)sc1C(=O)O` [compound 19, 2-[4-(cyclobutylmethoxy)-3-(1H-1,2,3-triazol-1-yl)phenyl]-4-methyl-1,3-thiazole-5-carboxylic acid], the IC50 was 1 to 5 nM.

`CC(C)Oc1ccc(-c2ncc(C(=O)O)s2)cc1-n1ccnn1` [compound 20, 2-[4-(propan-2-yloxy)-3-(1H-1,2,3-triazol-1-yl)phenyl]-1,3-thiazole-5-carboxylic acid]: the IC50 is 1 to 5 nM.

`Cc1nc(-c2ccc(OCC(C)C)c(-n3ccnc3)c2)sc1C(=O)O` [Compound No. 1, 2-[3-(1H-imidazol-1-yl)-4-(2-methylpropoxy)phenyl]-4-methyl-1,3-thiazole-5-carboxylic acid]: the IC50 fell in the range of 1 to 5 nM.

Turning to `Cc1nc(-c2ccc(OCC3CCCC3)c(-n3ccnc3)c2)sc1C(=O)O` [Compound No. 4, 2-[4-(cyclopentylmethoxy)-3-(1H-imidazol-1-yl)phenyl]-4-methyl-1,3-thiazole-5-carboxylic acid], the IC50 fell in the range of 5 to 10 nM.

As for `Cc1nc(-c2ccc(Oc3ccccc3F)c(-n3cnnn3)c2)sc1C(=O)O` [compound 34, 2-[4-(2-fluorophenoxy)-3-(1H-1,2,3,4-tetrazol-1-yl)phenyl]-4-methyl-1,3-thiazole-5-carboxylic acid], the IC50 was 1 to 5 nM.

As to `COc1cccc(F)c1Oc1ccc(-c2nc(C)c(C(=O)O)s2)cc1-n1cnnn1` [compound 43, 2-[4-(2-fluoro-6-methoxyphenoxy)-3-(1H-1,2,3,4-tetrazol-1-yl)phenyl]-4-methyl-1,3-thiazole-5-carboxylic acid], the IC50 was 1 to 5 nM.

With `Cc1nc(-c2ccc(OC3CCCC3)c(-n3ccnc3)c2)sc1C(=O)O` [Compound No. 5, 2-[4-(cyclopentyloxy)-3-(1H-imidazol-1-yl)phenyl]-4-methyl-1,3-thiazole-5-carboxylic acid], the IC50 was 5 to 10 nM.

Take `Cc1ccc(Oc2ccc(-c3nc(C)c(C(=O)O)s3)cc2-n2cnnn2)cc1` [compound 45, 2-[4-(4-methylphenoxy)-3-(1H-1,2,3,4-tetrazol-1-yl)phenyl]-4-methyl-1,3-thiazole-5-carboxylic acid]: the IC50 is 1 to 5 nM.

As to `Cc1nc(-c2ccc(Oc3ccccc3)c(-n3cnnn3)c2)sc1C(=O)O` [Compound No. 33, 4-methyl-2-[4-phenoxy-3-(1H-1,2,3,4-tetrazol-1-yl)phenyl]-1,3 thiazole-5-carboxylic acid], the IC50 is 1 to 5 nM.

As to `Cc1cccc(Oc2ccc(-c3nc(C)c(C(=O)O)s3)cc2-n2cnnn2)c1` [compound 38, 2-[4-(3-methylphenoxy)-3-(1H-1,2,3,4-tetrazol-1-yl)phenyl]-4-methyl-1,3-thiazole-5-carboxylic acid], the IC50 lay in the range of 1 to 5 nM.

For the compound `Cc1nc(-c2ccc(SC(C)C)c(-n3cnnn3)c2)sc1C(=O)O` [compound 50, 4-methyl-2-[4-(propan-2-ylsulfanyl)-3-(1H-1,2,3,4-tetrazol-1-yl)phenyl]-1,3-thiazole-5-carboxylic acid], the IC50 was 1 to 5 nM.

For `Cc1nc(-c2ccc(OC3CCCCC3)c(-n3ccnc3)c2)sc1C(=O)O` [compound 6, 2-[4-(cyclohexyloxy)-3-[1H-imidazol-1-yl)phenyl]-4-methyl-1,3-thiazole-5-carboxylic acid], the IC50 lay in the range of 5 to 10 nM.

On to `Cc1nc(-c2ccc(OCC(C)C)c(-n3ccnn3)c2)sc1C(=O)O` [compound 17, 4-methyl-2-[4-(2-methylpropoxy)-3-(1H-1,2,3-triazol-1-yl)phenyl]-1,3-thiazole-5-carboxylic acid], for which the IC50 is 1 to 5 nM.
